According to patent US7919247B2, “Simultaneous quantification of nucleic acids in diseased cells” (Pharmasset, Inc., priority 2000, dated 2011):
Read-outs that look alike come from different tables or passages of the source.

Columns and labels:
[1] = tested on: HIV-1 xxBRU (sensitive strain); test: endogenous viral RT assay of culture supernatant, HIV-1 infected human PBMC
[2] = tested on: HIV-1 xxBRU (sensitive strain); test: real-time RT-PCR HIV-1 viral load in culture supernatant, infected human PBMC
[3] = biological target: T1, mitochondrial RNA polymerase (Homo sapiens, UniProt O00411); test: quantitative RT-PCR of mitochondrial COXII RNA calibrated against nuclear RNA transcripts; assay type: cell-based; conditions: normalized for no treatment
T1 construct: endogenous in cells; HepG2 inferred from the preceding paragraphs
Procedure: Similar results were also obtained if this technology was carried out in a quantitative reverse-transcriptase-PCR protocol. This approach measures the potential inhibition of antiviral compounds for the mitochondrial RNA polymerase, in comparison with the nuclear RNA polymerases I (generating mainly rRNA transcripts), RNA polymerase II (generating mainly mRNA transcripts), or of lesser importance, RNA polymerase III (generating mainly tRNA transcripts). To obtain such results, amplification of either rRNA, or -actin mRNA as calibrator is required.

[4] = biological target: T2, mitochondrial DNA polymerase γ (Homo sapiens, UniProt P54098)
T2 sequence (P54098 1-1239): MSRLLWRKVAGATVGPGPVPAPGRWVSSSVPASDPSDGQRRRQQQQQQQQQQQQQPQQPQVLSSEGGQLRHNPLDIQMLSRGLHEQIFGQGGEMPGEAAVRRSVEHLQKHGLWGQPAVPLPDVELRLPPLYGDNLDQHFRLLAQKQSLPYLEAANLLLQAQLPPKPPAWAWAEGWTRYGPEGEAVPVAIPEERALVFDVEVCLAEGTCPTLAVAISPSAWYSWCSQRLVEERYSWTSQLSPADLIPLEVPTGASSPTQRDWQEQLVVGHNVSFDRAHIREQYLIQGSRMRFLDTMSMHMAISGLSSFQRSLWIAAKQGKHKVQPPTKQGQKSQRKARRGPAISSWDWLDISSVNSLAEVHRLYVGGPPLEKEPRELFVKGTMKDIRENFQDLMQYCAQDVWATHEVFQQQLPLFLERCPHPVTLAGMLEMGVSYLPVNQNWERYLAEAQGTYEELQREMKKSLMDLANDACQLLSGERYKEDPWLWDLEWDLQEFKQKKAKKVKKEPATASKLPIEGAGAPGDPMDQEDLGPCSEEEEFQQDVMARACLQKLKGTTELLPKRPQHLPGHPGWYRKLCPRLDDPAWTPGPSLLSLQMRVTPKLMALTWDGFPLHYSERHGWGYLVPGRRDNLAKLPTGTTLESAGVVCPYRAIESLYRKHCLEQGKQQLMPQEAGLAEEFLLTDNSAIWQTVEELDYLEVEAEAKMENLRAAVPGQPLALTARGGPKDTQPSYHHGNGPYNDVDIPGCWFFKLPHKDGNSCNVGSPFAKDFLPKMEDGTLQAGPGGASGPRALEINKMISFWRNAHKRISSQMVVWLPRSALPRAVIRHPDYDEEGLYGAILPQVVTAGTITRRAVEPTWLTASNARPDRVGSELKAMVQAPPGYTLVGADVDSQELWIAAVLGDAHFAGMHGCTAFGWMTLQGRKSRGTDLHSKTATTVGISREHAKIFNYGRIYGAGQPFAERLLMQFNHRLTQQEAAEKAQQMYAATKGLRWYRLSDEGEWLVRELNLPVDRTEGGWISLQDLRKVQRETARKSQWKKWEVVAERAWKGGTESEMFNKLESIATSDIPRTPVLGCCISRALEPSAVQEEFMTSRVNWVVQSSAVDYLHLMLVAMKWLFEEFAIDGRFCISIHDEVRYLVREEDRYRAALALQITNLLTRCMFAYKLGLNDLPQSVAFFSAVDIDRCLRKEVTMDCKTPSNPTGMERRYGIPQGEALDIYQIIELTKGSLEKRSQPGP
T2 sequence (Q9UHN1 26-485 partner limits assumed): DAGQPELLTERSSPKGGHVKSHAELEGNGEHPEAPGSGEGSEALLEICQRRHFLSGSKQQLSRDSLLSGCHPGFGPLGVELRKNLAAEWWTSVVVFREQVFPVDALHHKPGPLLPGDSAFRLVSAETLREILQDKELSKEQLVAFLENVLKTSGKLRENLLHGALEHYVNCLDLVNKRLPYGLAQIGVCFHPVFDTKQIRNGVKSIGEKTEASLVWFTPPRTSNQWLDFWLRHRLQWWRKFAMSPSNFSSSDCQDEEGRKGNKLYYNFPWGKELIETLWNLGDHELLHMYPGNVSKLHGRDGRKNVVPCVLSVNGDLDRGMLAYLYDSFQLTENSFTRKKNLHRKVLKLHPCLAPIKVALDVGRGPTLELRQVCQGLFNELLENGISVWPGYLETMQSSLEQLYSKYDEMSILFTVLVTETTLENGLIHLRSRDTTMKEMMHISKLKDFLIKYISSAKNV

[5] = MTS/MTT dye toxicity assay; assay type: cell-based
Procedure: (§1) After a three day-incubation, or 4 for CEM, or 5 days for PBMC, cell viability and mitochondrial activity were measured in a colorimetric assay using the MTS- or MTT dye (Promega, Wis.).
(§2) The cytotoxicity testing as performed here is a standard technique. Briefly, cells are seeded in 96-well plates at various concentrations (dependent on cell type, duration of assay), typically at 5×10^3 cells per well, in the presence of increasing concentrations of the test compound (0, 1, 3, 10, 33, and 100 μM). After a three day-incubation, cell viability and mitochondrial activity are measured by adding the MTS-dye (Promega), followed by a 3 hours incubation. Afterwards the plates containing the dye are read at 490 nm. Such methodologies are well described and available from the manufacturer (Promega).

[6] = MTS/MTT dye toxicity assay; assay type: cell-based, human; conditions: human
Procedure: as §1, §2

CEM = test: MTS/MTT dye toxicity assay; assay type: cell-based; conditions: CEM cells, evaluated up to 100 μM
Procedure: as §1, §2

VERO = test: MTS/MTT dye toxicity assay; assay type: cell-based; conditions: Vero cells, evaluated up to 100 μM
Procedure: as §1, §2

PBMC = test: MTS/MTT dye toxicity assay; assay type: cell-based, human; conditions: human PBMC, evaluated up to 100 μM
Procedure: as §1, §2

[7] = biological target: T2, mitochondrial DNA polymerase γ; test: real-time PCR mitochondrial DNA polymerase toxicity (COXII vs β-actin DNA, comparative Ct) in HepG2 cells; conditions: 7-day incubation with up to 10 μM
[8] = xxBRU, RT assay, human PBMC, 5 days
[9] = xxBRU, real-time RT-PCR, human PBMC, 5 days
[10] = Human immunodeficiency virus 1, PBMC, 120 h

T1 sequence (O00411 42-1230): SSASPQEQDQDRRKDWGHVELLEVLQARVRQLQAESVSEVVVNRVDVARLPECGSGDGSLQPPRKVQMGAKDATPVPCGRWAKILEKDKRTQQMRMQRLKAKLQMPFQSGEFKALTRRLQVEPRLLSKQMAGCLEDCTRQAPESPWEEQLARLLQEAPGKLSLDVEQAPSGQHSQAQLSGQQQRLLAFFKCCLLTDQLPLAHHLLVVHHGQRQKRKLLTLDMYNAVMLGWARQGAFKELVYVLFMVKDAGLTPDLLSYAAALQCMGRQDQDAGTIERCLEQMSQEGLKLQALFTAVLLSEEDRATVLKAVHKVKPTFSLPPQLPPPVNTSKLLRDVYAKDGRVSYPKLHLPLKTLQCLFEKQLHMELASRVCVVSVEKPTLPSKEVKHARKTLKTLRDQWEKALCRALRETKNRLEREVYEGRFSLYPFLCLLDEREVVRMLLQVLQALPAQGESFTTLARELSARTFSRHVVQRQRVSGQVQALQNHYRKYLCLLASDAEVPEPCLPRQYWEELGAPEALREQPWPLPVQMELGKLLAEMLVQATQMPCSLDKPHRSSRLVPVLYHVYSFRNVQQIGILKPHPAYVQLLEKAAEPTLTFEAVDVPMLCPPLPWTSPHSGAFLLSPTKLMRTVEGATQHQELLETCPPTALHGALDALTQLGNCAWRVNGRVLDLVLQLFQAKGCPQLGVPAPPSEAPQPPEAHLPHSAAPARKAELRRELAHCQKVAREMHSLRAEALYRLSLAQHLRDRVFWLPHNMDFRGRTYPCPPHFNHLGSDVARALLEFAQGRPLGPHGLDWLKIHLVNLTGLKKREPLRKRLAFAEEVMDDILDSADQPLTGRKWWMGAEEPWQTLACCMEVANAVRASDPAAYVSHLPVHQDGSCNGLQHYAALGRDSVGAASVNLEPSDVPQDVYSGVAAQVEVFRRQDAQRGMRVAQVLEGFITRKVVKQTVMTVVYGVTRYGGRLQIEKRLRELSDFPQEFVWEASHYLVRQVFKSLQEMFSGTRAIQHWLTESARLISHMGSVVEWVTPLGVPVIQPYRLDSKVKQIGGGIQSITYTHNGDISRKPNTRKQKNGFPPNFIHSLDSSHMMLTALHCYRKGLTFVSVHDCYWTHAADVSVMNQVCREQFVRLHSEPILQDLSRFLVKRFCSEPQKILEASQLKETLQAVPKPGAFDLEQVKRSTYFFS

What does the source list for Nc1ccn([C@@H]2CS[C@H](CO)O2)c(=O)n1 [3TC]?
EC50 [1, 8]: 18 nM; EC90 [1, 8]: 77 nM; EC50 [2, 9]: 30 nM; EC90 [2, 9]: 120 nM

Which EC50 [1, 8] does the source give for Cc1cn([C@H]2C[C@H](N=[N+]=[N-])[C@@H](CO)O2)c(=O)[nH]c1=O [AZT] here?
Its EC50 is 3.4 nM.

What about the EC90 [1, 8] of the same compound?
Its EC90 is 34 nM.

And the EC50 [2, 9]?
The EC50 was 3.9 nM.

What about the EC90 [2, 9] of the same compound?
The EC90 was 36 nM.

With Nc1ccn([C@H]2CC[C@@H](CO)O2)c(=O)n1 [D-DDC] as the compound, how does the “mitochondrial (COXII) RNA levels” value [3] read?
The value was “significant reduction in mitochondrial RNA levels”.

And the “mitochondrial DNA reduction as compared to the no-drug control” value [4]?
Its value is “dose-dependent reduction in mitochondrial DNA synthesis”.

Which EC50 [1, 8] does the source give for Cc1cn([C@H]2C=C[C@@H](CO)O2)c(=O)[nH]c1=O [d4T] here?
The EC50 was 3.4 nM.

And the EC90 [1, 8]?
The EC90 was 130 nM.

What about the EC50 [2, 9] of the same compound?
Its EC50 is 2.7 nM.

What about the EC90 [2, 9] of the same compound?
Its EC90 is 120 nM.

For Nc1ccn([C@@H]2S[C@H](CO)C=C2F)c(=O)n1 [β-D-d4-2′F-(4-S-pentenyl)-C], which CC50 at 3 days ([5]; African green monkey) is on record?
Its CC50 at 3 days is greater than 100000 nM.

And the CC50 at 3 days ([5]; human)?
The CC50 at 3 days was greater than 100000 nM.

What about the CC50 at 4 days ([5]; human) of the same compound?
Its CC50 at 4 days is greater than 100000 nM.

And the CC50 at 5 days [6]?
The CC50 at 5 days was greater than 100000 nM.

What about the EC50 [1, 10] of the same compound?
The EC50 was 5980 nM.

What about the EC90 [1, 10] of the same compound?
The EC90 was 23200 nM.

What about the EC50 [2, 10] of the same compound?
Its EC50 is 2680 nM.

What about the EC90 [2, 10] of the same compound?
The EC90 was 18100 nM.

For Nc1ccn([C@H]2S[C@@H](CO)C=C2F)c(=O)n1 [β-L-d4-2′F-(4-S-pentenyl)-C], which CC50 at 3 days ([5]; African green monkey, VERO, read-out: CC50) is on record?
The CC50 at 3 days was greater than 100000 nM.

What about the CC50 at 4 days ([5]; human, CEM, read-out: CC50) of the same compound?
Its CC50 at 4 days is greater than 100000 nM.

And the CC50 at 3 days ([5]; human, HepG2, read-out: CC50)?
Its CC50 at 3 days is greater than 100000 nM.

And the “cytotoxicity in MTS-dye assay” value (CEM)?
Its value is “no cytotoxicity was observed”.

And the “cytotoxicity in MTS-dye assay” value (VERO)?
The value was “no cytotoxicity was observed”.

What about the CC50 at 5 days ([6]; PBMC, read-out: CC50) of the same compound?
Its CC50 at 5 days is greater than 100000 nM.

And the “cytotoxicity in MTS-dye assay” value (PBMC)?
Its value is “no cytotoxicity was observed”.

What about the EC50 [1, 10] of the same compound?
The EC50 was 1610 nM.

What about the EC90 [1, 10] of the same compound?
Its EC90 is 11600 nM.

And the EC50 [2, 10]?
The EC50 was 400 nM.

What about the EC90 [2, 10] of the same compound?
Its EC90 is 2680 nM.

What about the “mitochondrial toxicity (γ-DNA polymerase inhibition)” value [7] of the same compound?
Its value is “no toxicity”.

For (−)-FTC [(-) FTC], which “mitochondrial (COXII) RNA levels” value [3] is on record?
Its value is “did not affect the COXII RNA levels”.

And the “mitochondrial DNA reduction as compared to the no-drug control” value [4]?
Its value is “does not induce any significant mitochondrial DNA reduction”.

What about the EC50 [1, 8] of the same compound?
The EC50 was 11 nM.

What about the EC90 [1, 8] of the same compound?
The EC90 was 50 nM.

What about the EC50 [2, 9] of the same compound?
The EC50 was 5.9 nM.

And the EC90 [2, 9]?
Its EC90 is 88 nM.
